Laboratory results reported in patent publication US20210177869A1, “METHODS AND COMBINATIONS FOR MODULATING TOLERANCE TO OPIATES, OPIOIDS OR OPIOID ANALGESICS AND TREATING ACUTE AND CHRONIC PAIN” (CHINA MEDICAL UNIVERSITY, priority 2018, published 2021).

What was measured:
Assay type in all cases: in vivo
mice [1] = experiment: Opioid tolerance, morphine percent maximal possible effect (% MPE) over 7 days; conditions: WT mice; for development of tolerance, in comparison to the morphine alone group / number of days of morphine-induced analgesic effect, in comparison to the morphine alone group: co-treatment with morphine 20 mg/kg/day, SSZ 60 mg/kg/day or capsazepine 10 mg/kg/day, twice daily 7 days
Experimental: To test whether system xc^− plays a role in opioid tolerance, WT and xCT KO mice were injected intraperitoneally with morphine twice daily and tested on 7 days continuously for determination of their respective morphine percent maximal possible effect (% MPE). Analgesic effect was expressed as % MPE, where % MPE=(test−baseline latency)/(cutoff−baseline)×100. […] Next, the WT mice were received the co-administration of system xc^− inhibitor, SSZ or capsazepine, and morphine twice daily for one-week observation.

mice [2] = experiment: Mechanical allodynia, von Frey filament test; conditions: for withdraw threshold in von Frey filament test, compared to vehicle: wild-type mice, SSZ 30 mg/kg/day, morphine 10 mg/kg/day, methadone 5 mg/kg/day or combinations for 8 days; for withdraw threshold in von Frey filament test: WT and xCT KO mice (both genotypes), ip morphine 10 mg/kg/day or methadone 4 mg/kg/day for 7 days
Experimental: (§1) The thermal hyperalgesia was evaluated by placing the mice in a 1000 ml beaker and on the 56±2° C. hot plate with the maximum of 35 second to prevent tissue damage. The time is recorded when the mice jumps on to the edge of the beaker, the value is considered as the withdrawal threshold. A customized transparent acrylic chamber with the size of 20×20×20 cm and 5 mm thick acrylic with 2 mm diameter holes throughout the entire platform is used to determine the mechanical allodynia and thermal hyperalgesia. Mice were placed in the chamber to evaluate the mechanical allodynia by applying a 0.6 g pressure von Frey hair (Touch-Test Sensory Evaluator, North Coast Medical, Inc) to the hind paws of the mice for five times with a five second interval. If the mice hind paw is withdrawn from the platform over three times, the pressure of the von Frey hair will be recorded and regarded as the withdrawal threshold.

mice [3] = experiment: Thermal hyperalgesia, hot plate test; conditions: for latencies of the first sign of pain in the hot-plate test, compared to vehicle: wild-type mice, SSZ 30 mg/kg/day, morphine 10 mg/kg/day, methadone 5 mg/kg/day or combinations for 8 days; for latency of first sign of pain in the hot-plate test: WT and xCT KO mice (both genotypes), ip morphine 10 mg/kg/day or methadone 4 mg/kg/day for 7 days; for analgesic effect in xCT KO mice compared to WT mice: hot plate and von Frey tests, morphine 10 mg/kg/day or methadone 4 mg/kg/day for 7 days
Experimental: as §1

mice [4] = experiment: Opioid-induced constipation, fecal collection and stool weight; conditions: wild-type mice; SSZ 30 mg/kg, morphine 10 mg/kg or combination, ip, 7 days
Experimental: Fecal collections and the stool weighed were recorded before and after morphine and/or SSZ administration. The fecal was collected every two days.
Opioid-induced constipation is a side effect for using opioid pain relief medication.

morphine-dependent mice = experiment: Naloxone-precipitated withdrawal jumping in mice with chronic morphine dependence; conditions: for naloxone-induced jumping behavior: naloxone 5 mg/kg + SSZ 30 mg/kg or capsazepine 5 mg/kg
Experimental: Chronic morphine dependence was induced by repeated injections for four consecutive days with an escalating dose schedule. Mice received morphine twice daily (morning and afternoon) for 4 days (day 1: 12 mg/kg and 25 mg/kg; day 2: 25 mg/kg and 50 mg/kg; day 3: 50 mg/kg and 75 mg/kg; day 4: 75 mg/kg and 100 mg/kg). On the testing day (day 5), a final morphine dose (50 mg/kg) was administered before exam.
A single dose of naloxone (5 mg/kg) was administered to all mice 60 mins after the final morphine dose. Immediately, following with naloxone injection, animals were placed into individual Plexiglas observation cylinders. Withdrawal jumping response symptoms were recorded and the frequency of jumps for each mouse was summed over one hour.
It was first determined whether system xc^− contributes to opioid dependence. WT and xCT KO mice were received the repeated injections for four consecutive days with an escalating dose schedule for the induction of chronic morphine dependence. Mice received morphine twice daily (morning and afternoon) for 4 days (day 1: 12 mg/kg and 25 mg/kg; day 2: 25 mg/kg and 50 mg/kg; day 3: 50 mg/kg and 75 mg/kg; day 4: 75 mg/kg and 100 mg/kg). On the testing day (day 5), a final morphine dose (50 mg/kg) was administered before naloxone-induced acute withdrawal syndromes. […] To observe the effect of system xc^− inhibits in opioid withdrawal, mice with chronic morphine dependence were randomly divided into the following groups (sample size N=6 in each group): group 1: control mice without any treatment; group 2: morphine-dependent mice with vehicle treatment; group 3: morphine-dependent mice with naloxone (5 mg/kg) treatment; group 4: morphine-dependent mice with naloxone (5 mg/kg)+methadone (10 mg/kg) treatment; group 5: morphine-dependent mice with naloxone (5 mg/kg)+SSZ (30 mg/kg) treatment; and group 6: morphine-dependent mice with naloxone (5 mg/kg)+capsazepine (5 mg/kg).

| Compound | development of tolerance, in comparison to the morphine alone group (mice [1]) | number of days of morphine-induced analgesic effect, in comparison to the morphine alone group (mice [1]) | withdraw threshold in von Frey filament test, compared to vehicle (mice [2]) | latencies of the first sign of pain in the hot-plate test, compared to vehicle (mice [3]) | opioid-induced constipation / defecation (stool weight) (mice [4]) | naloxone-induced jumping behavior (morphine-dependent mice) | opioid tolerance (% MPE) (mice [1]; morphine 20 mg/kg/day ip twice daily, 7 days) | withdraw threshold in von Frey filament test (mice [2]) | latency of first sign of pain in the hot-plate test (mice [3]) | analgesic effect in xCT KO mice compared to WT mice (mice [3]) | jumping behavior (withdrawal) (morphine-dependent mice; naloxone 5 mg/kg, observed one hour) |
| --- | --- | --- | --- | --- | --- | --- | --- | --- | --- | --- | --- |
| O=C(O)c1cc(/N=N/c2ccc(S(=O)(=O)Nc3ccccn3)cc2)ccc1O [SSZ, sulfasalazine] | significantly attenuated the development of tolerance | prolong the number of days of morphine-induced analgesic effect | more than those in vehicle-treated mice | more than those in vehicle-treated mice | didn't decreased or increased defecation | inhibited naloxone-induced jumping behavior |  |  |  |  |  |
| Oc1cc2c(cc1O)CN(C(=S)NCCc1ccc(Cl)cc1)CCC2 [capsazepine] | significantly attenuated the development of tolerance | prolong the number of days of morphine-induced analgesic effect |  |  |  | inhibited naloxone-induced jumping behavior |  |  |  |  |  |
| CN1CC[C@]23c4c5ccc(O)c4O[C@H]2[C@@H](O)C=C[C@H]3[C@H]1C5 [morphine] |  |  | more than those in vehicle-treated mice | more than those in vehicle-treated mice | developed the opioid-induced constipation |  | significant opioid tolerance on day 3 | significantly increased | significantly increased | higher than that in WT mice |  |
| C=CCN1CC[C@]23c4c5ccc(O)c4O[C@H]2C(=O)CC[C@@]3(O)[C@H]1C5 [naloxone] |  |  |  |  |  |  |  |  |  |  | significant jumping behavior compared to other groups |
| CCC(=O)C(CC(C)N(C)C)(c1ccccc1)c1ccccc1 (stereo not shown) [methadone] |  |  | more than those in vehicle-treated mice | more than those in vehicle-treated mice |  |  |  | significantly increased | significantly increased | higher than that in WT mice |  |
